Legend:
Format in all cases: cell-based
[1] = system: TNF-α; assay: Inhibition of TNF-α production by stimulated human peripheral blood leukocytes in vitro; settings: PBL
Method: (§1) Test substances used in in vitro experiments were dissolved in dimethyl sulfoxide (DMSO) (Kemika, Croatia) at concentrations of 50 mM and 10 mM, and were further diluted to final concentrations of 50 μM and 10 μM in 1 mL Dulbecco's modified Eagle medium (DMEM) supplemented with 1% heat inactivated fetal bovine serum (FBS), 1% L-glutamine, 50 U/ml penicillin, 50 μg/ml streptomycin and 2.5 μg/mL Fungizone (amphotericin B). Media and all media supplements were purchased from Gibco, Australia, except the FBS was purchased from Sigma, USA.
(§2) Peripheral blood leukocytes (PBL) were obtained from venous blood of healthy volunteers by sedimentation on 2% dextran T-500 (Amersham Biosciences, USA) and subsequent centrifugations of leukocyte rich plasma.
(§3) Peripheral blood leukocytes (PBL), isolated as described above, were seeded in a 48-well plate at a concentration of 3 to 5×10^6 cell per well in culture medium consisting of RPMI 1640 medium (Institute of Immunology, Croatia) supplemented with 10% heat-inactivated fetal calf serum (FCS, Biowhittaker, USA), 100 U/ml penicillin (Gibco, Australia), 100 μg/ml streptomycin (Gibco, Australia) and 2 mM L-glutamine (Gibco, Australia), and preincubated with the test compounds for 2 h at 37° C., in an atmosphere of 5% CO2, and 90% humidity. Then, stimuli (Sigma, USA) were added to a final concentration of 2 μg/mL lipopolysaccharide (LPS), 1 μg/mL phorbol 12-myristate 13-acetate (PMA) or 120 μg/mL zymosan. Samples were incubated overnight under conditions described above. At the end of incubation, the supernatants were transferred to eppendorf tubes and centrifuged for 10 min at 1500×g. Concentrations of human TNF-α, IL-1β, IL-6 and IL-8 were determined in cell supernatants by sandwich ELISA, using capture and detection antibodies (R&D Systems, Minneapolis, Minn.) according to the manufacturer's recommendations.
(§4) Inhibition (as percentage) was calculated using the following formula: % inhibition=(1−concentration of cytokines in sample/concentration of cytokines in positive control)×100. The positive control refers to stimulated samples, not treated with substances.

[2] = system: IL-1α; assay: Inhibition of IL-1 production by stimulated human peripheral blood leukocytes in vitro; settings: PBL
[3] = system: IL-6; assay: Inhibition of IL-6 production by stimulated human peripheral blood leukocytes in vitro; settings: PBL
Method: as §1, §2, §3, §4

[4] = system: IL-8; assay: Inhibition of IL-8 production by stimulated human peripheral blood leukocytes in vitro; settings: PBL
Method: as §1, §2, §3, §4

[5] = system: human peripheral blood mononuclear cells (PBMC); assay: Human T-cell proliferation in vitro (3H-thymidine incorporation)
Method: Influence of substances at two different concentrations (50 μM and 10 μM) on cell proliferation of human peripheral blood mononuclear cells (PBMC) was assessed.
Heparinized peripheral blood was obtained from healthy donors, and PBMC were isolated by Histopaque 1077 (Sigma, USA) density centrifugation at 400×g for 30 minutes. 5×10^4 cells/well were cultured for 3 days in the RPMI medium as described above, in the presence (positive control) or absence (negative control) of stimulators [PHA (2.5 μg/mL) (Sigma, USA), or both PMA (10 ng/mL) (Sigma, USA) and ionomycin (500 ng/mL) (Calbiochem, USA)], and in the presence of the test compounds, at 37° C. in an atmosphere of 5% CO2 and 90% humidity. The cells were pulsed with 1 μCi of ^3H-thymidine (Amersham, USA) per well during the last 18 h of the culture, and were harvested on the 96-well filter (Packard Bioscience, USA) using a multiple cell harvester (Packard, USA). The incorporation of ^3H-thymidine in activated cells were measured using TopCount NXT (Packard, USA).
Inhibition (as percentage) was calculated using the following formula: % inhibition=(1−(^3H)thymidine incorporation expressed in counts per minute (cpm) in sample/(^3H)thymidine incorporation expressed in cpm in positive control)×100
where positive control refers to stimulated samples, not treated with substances.

[6] = zymosan stimulated, compound 10 μM
[7] = zymosan stimulated, compound 50 μM

Row | SMILES | Percentage of inhibition of TNF-α production ([1]; LPS stimulated, compound 10 μM) | Percentage of inhibition of TNF-α production ([1]; LPS stimulated, compound 50 μM) | Percentage of inhibition of TNF-α production ([1]; PMA stimulated, compound 10 μM) | Percentage of inhibition of TNF-α production ([1]; PMA stimulated, compound 50 μM) | Percentage of inhibition of TNF-α production [1, 6] | Percentage of inhibition of TNF-α production [1, 7] | Percentage of inhibition of IL-1α production ([2]; LPS stimulated, compound 10 μM) | Percentage of inhibition of IL-1α production ([2]; LPS stimulated, compound 50 μM) | Percentage of inhibition of IL-1α production ([2]; PMA stimulated, compound 10 μM) | Percentage of inhibition of IL-1α production ([2]; PMA stimulated, compound 50 μM) | Percentage of inhibition of IL-1α production [2, 6] | Percentage of inhibition of IL-1α production [2, 7] | Percentage of inhibition of IL-6 production ([3]; LPS stimulated, compound 10 μM) | Percentage of inhibition of IL-6 production ([3]; LPS stimulated, compound 50 μM) | Percentage of inhibition of IL-6 production [3, 6] | Percentage of inhibition of IL-6 production [3, 7] | Percentage of inhibition of IL-8 production ([4]; LPS stimulated, compound 10 μM) | Percentage of inhibition of IL-8 production ([4]; LPS stimulated, compound 50 μM) | Percentage of inhibition of IL-8 production [4, 6] | Percentage of inhibition of IL-8 production [4, 7] | also measured
1 | CC[C@H]1OC(=O)[C@H](C)[C@@H](O)[C@H](C)[C@@H](O[C@@H]2O[C@H](C)C[C@H](N(C)C)[C@H]2O)[C@](C)(O)C[C@@H](C)CN(C(=O)NCc2ccccc2)[C@H](C)[C@@H](O)[C@]1(C)O [Compound 8] | 58% | 30% | 56% | 54% | 16% | 0% | 42% | 40% | 26% | 0% | 16% | 17% | 60% | 82% | 20% | 18% | 48% | 0% | 0% | 0% | Percentage of inhibition of IL-8 production ([4]; PMA stimulated, compound 10 μM): 37%; Percentage of inhibition of IL-8 production ([4]; PMA stimulated, compound 50 μM): 0%; Percentage of inhibition of proliferation of stimulated PBMC ([5]; PHA stimulated, compound 10 μM): 0%; Percentage of inhibition of proliferation of stimulated PBMC ([5]; PHA stimulated, compound 50 μM): 0%; Percentage of inhibition of proliferation of stimulated PBMC ([5]; PMA + ionomycin stimulated, compound 10 μM): 0%; Percentage of inhibition of proliferation of stimulated PBMC ([5]; PMA + ionomycin stimulated, compound 50 μM): 0%
2 | CC[C@H]1OC(=O)[C@H](C)C2O[C@@](C)(C[C@@H](C)CN(C(=O)NCc3ccccc3)[C@H](C)[C@@H](O)[C@]1(C)O)[C@H](O[C@@H]1O[C@H](C)C[C@H](N(C)C)[C@H]1O)[C@H]2C [Compound 11] | 0% | 51% |  |  | 13% | 88% | 48% | 38% |  |  | 85% | 77% | 0% | 66% | 72% | 100% | 0% | 52% | 23% | 75% | 
3 | CC[C@H]1OC(=O)[C@H](C)[C@@H](O[C@H]2C[C@@](C)(OC)[C@@H](O)[C@H](C)O2)[C@H](C)[C@@H](O[C@@H]2O[C@H](C)C[C@H](N(C)C)[C@H]2O)[C@](C)(O)C[C@@H](C)CN(C(=O)Nc2ccc(Cl)c(C(F)(F)F)c2)[C@H](C)[C@@H](O)[C@]1(C)O [Compound 10] | 32% | 99% | 0% | 100% | 69% | 99% | 0% | 100% | 0% | 100% | 0% | 96% | 63% | 100% | 76% | 100% | 55% | 93% | 82% | 97% | Percentage of inhibition of IL-6 production ([3]; PMA stimulated, compound 10 μM): 40%; Percentage of inhibition of IL-6 production ([3]; PMA stimulated, compound 50 μM): 100%; Percentage of inhibition of IL-8 production ([4]; PMA stimulated, compound 10 μM): 75%; Percentage of inhibition of IL-8 production ([4]; PMA stimulated, compound 50 μM): 100%
4 | CC[C@H]1OC(=O)[C@H](C)[C@@H](O[C@H]2C[C@@](C)(OC)[C@@H](O)[C@H](C)O2)[C@H](C)[C@@H](O[C@@H]2O[C@H](C)C[C@H](N(C)C)[C@H]2O)[C@](C)(O)C[C@@H](C)CN(C(=S)Nc2ccc(Br)cc2)[C@H](C)[C@@H](O)[C@]1(C)O [Compound 7] | 0% | 100% | 95% | 100% | 69% | 100% | 71% | 89% | 0% | 79% | 96% | 83% | 54% | 100% | 73% | 100% | 39% | 100% | 61% | 99% | Percentage of inhibition of IL-6 production ([3]; PMA stimulated, compound 10 μM): 65%; Percentage of inhibition of IL-6 production ([3]; PMA stimulated, compound 50 μM): 90%; Percentage of inhibition of IL-8 production ([4]; PMA stimulated, compound 10 μM): 40%; Percentage of inhibition of IL-8 production ([4]; PMA stimulated, compound 50 μM): 100%

— patent US20080200403A1, “9A-Carbamoyl and Thiocarbamoyl Azalides with Anti-Inflammatory Activity” (GLAXOSMITHKLINE, priority 2005, published 2008)
